The assay addresses T1, HCV NS3 helicase (Hepatitis C virus genotype 1b, UniProt P26663).
T1 construct: full-length NS3 (1-631), purified at Array BioPharma
Nature of the assay: HCV Helicase Prompt FRET Assay (Example A). Format: biochemical. To be noted: HCV NS3 helicase; tables do not say whether Example A or Example B assay; read-out: IC50 Activity. The procedure: Test compounds were diluted to 2.5 mM by adding 6 uL of a 10 mM solution of the compound to 18 uL of DMSO in a 384-well Costar polypropylene plate. Serial dilutions (2.5×) were performed in the plate using DMSO as the diluent. 1 ul of solution was transferred from each well to a new 384-well Costar polypropylene plate.
A 2× mixture was prepared containing 100 nM helicase substrate, 500 nM helicase capture strand (CS), and 600 μM ATP by diluting stock solutions with assay buffer consisting of 25 mM MOPS, pH 7.0, and 1.5 mM MgCl2, 0.005% (v/v) Triton X-100. Stock helicase substrate was prepared by annealing a FAM-labeled oligonucleotide to a BHQ-1 labeled oligonucleotide, which were both custom synthesized and HPLC-purified at Biosearch Technologies. The FAM-labeled and BHQ-labeled oligonucleotide had the following sequences:
The helicase capture strand was custom synthesized and purified at Integrated DNA Technologies. The helicase capture strand had the following sequence:
The ATP solution was prepared in MilliQ water, pH adjusted to approximately 7 with NaOH. ATP powder was obtained from Sigma (A-7699). The concentration was determined via A260 (ext. coeff=15,400 M^−1cm^−1).
11.5 μL of assay buffer was added to all wells of the plate containing luL of test compound. 5 μL of the Compound/assay buffer mixture was added to a black polystyrene 384-well Proxiplate. A 4× Enzyme solution was prepared by diluting enzyme stock containing full-length NS3 (1-631), purified at Array BioPharma, with assay buffer. 5 μL of the 4× Enzyme solution was added to the Proxiplate and incubated for 5 minutes (for control wells lacking enzyme, assay buffer was used instead). 10 μL of 2× substrate/CS/ATP mixture was then added to all wells of Proxiplate. The final assay conditions included 50 nM Substrate, 250 nM Capture Strand, 300 μM ATP, 5 or 6 nM Enzyme, and 2% (v/v) DMSO. The reaction proceeded for 70 cycles (˜30 min.) on an Envision at room temperature. The plate was read using the Envision (top mirror=FITC; Excitation filter=FITC 485; Emission filter=FITC 535). The fluorescence intensity was recorded for a total of 30 minutes. The initial rates of the reactions was calculated and used to calculate IC50 values. The IC50 curve fitting was performed using either a 4-parameter or 5-parameter logistic equation.

As usually defined, the IC50 is the midpoint of a concentration-inhibition curve.

The structures appear in SMILES notation. Some results are limits rather than exact numbers.

T1 sequence (P26663 1027-1657): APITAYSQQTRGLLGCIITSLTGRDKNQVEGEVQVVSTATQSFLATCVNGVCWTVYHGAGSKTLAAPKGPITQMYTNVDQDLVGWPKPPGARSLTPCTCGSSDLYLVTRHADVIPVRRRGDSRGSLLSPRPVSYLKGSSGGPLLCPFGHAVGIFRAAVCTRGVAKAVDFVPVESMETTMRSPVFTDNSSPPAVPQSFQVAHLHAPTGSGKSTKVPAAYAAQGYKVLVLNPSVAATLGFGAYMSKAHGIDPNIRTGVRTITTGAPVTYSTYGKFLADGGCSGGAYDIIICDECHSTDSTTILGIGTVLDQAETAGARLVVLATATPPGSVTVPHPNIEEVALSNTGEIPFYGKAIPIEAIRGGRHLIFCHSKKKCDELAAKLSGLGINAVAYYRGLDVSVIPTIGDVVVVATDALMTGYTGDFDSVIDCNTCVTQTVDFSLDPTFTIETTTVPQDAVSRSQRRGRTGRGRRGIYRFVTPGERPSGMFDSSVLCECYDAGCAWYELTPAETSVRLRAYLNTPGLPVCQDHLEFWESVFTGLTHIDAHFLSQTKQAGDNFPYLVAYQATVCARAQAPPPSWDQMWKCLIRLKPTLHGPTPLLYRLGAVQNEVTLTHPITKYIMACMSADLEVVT

Turning to `O=C(O)Cc1c(C(=O)c2cccc(-c3cccc(C(F)(F)F)c3)c2)[nH]c2ccccc12` [Example 225], the half-inhibitory concentration (IC50) lay in the range of 10 to 50 µM. Regarding `CCOc1cccc(-c2cccc(C(=O)c3[nH]c4ccccc4c3CC(=O)O)c2)c1` [Example 226], the IC50 fell in the range of 10 to 50 µM. In the case of `CC(C)c1cccc(-c2cccc(C(=O)c3[nH]c4ccccc4c3CC(=O)O)c2)c1` [Example 227] it was less than 10 µM; in that of `CSc1cccc(-c2cccc(C(=O)c3[nH]c4ccccc4c3CC(=O)O)c2)c1` [Example 228], 10 to 50 µM; in that of `COc1cccc(-c2cccc(C(=O)c3[nH]c4ccccc4c3CC(=O)O)c2)c1` [Example 229], 10 to 50 µM. On to `O=C(O)Cc1c(C(=O)c2cccc(-c3cccc(Cl)c3Cl)c2)[nH]c2ccccc12` [Example 230], for which the IC50 was less than 10 µM. Consider `O=C(O)Cc1c(C(=O)c2cccc(-c3cc(Cl)cc(Cl)c3)c2)[nH]c2ccccc12` [Example 231], for which the half-maximal inhibitory concentration (IC50) was less than 10 µM.

Turning to `O=C(O)Cc1c(C(=O)c2cccc(-c3cccc(Cl)c3)c2)[nH]c2ccccc12` [Example 232], the IC50 lay in the range of 10 to 50 µM. Then `Cc1cc(C)cc(-c2cccc(C(=O)c3[nH]c4ccccc4c3CC(=O)O)c2)c1` [Example 233], with less than 10 µM; and `O=C(O)Cc1c(C(=O)c2cccc(-c3ccccc3Cl)c2)[nH]c2ccccc12` [Example 234], with 10 to 50 µM; and `O=C(O)Cc1c(C(=O)c2cccc(-c3ccc(CO)cc3)c2)[nH]c2ccccc12` [Example 235], with 10 to 50 µM. Then `COc1ccc(-c2cccc(C(=O)c3[nH]c4ccccc4c3CC(=O)O)c2)cc1` [Example 236], with 10 to 50 µM; and `O=C(O)Cc1c(C(=O)c2cccc(-c3cccc(OC(F)(F)F)c3)c2)[nH]c2ccccc12` [Example 237], with 10 to 50 µM. Then `O=C(O)Cc1c(C(=O)c2cccc(-c3ccnc(Cl)c3)c2)[nH]c2ccccc12` [Example 238], with 10 to 50 µM; and `O=C(O)Cc1c(C(=O)c2cccc(-c3ccc(Cl)cc3Cl)c2)[nH]c2ccccc12` [Example 239], with less than 10 µM. With `O=C(O)Cc1c(C(=O)c2cccc(-c3ccc(Cl)c(Cl)c3)c2)[nH]c2ccccc12` [Example 240], the IC50 is less than 10 µM.

Regarding `O=C(O)Cc1c(C(=O)c2cccc(-c3cccc(Cl)c3Cl)c2)oc2ccccc12` [Example 241], the IC50 was less than 10 µM. Consider `O=C(O)Cc1c(C(=O)c2cccc(-c3ccc(Cl)cc3Cl)c2)oc2ccccc12` [Example 242], for which the IC50 is less than 10 µM. In the case of `O=C(O)Cc1c(C(=O)c2cccc(-c3ccc(Cl)c(Cl)c3)c2)oc2ccccc12` [Example 243] it was less than 10 µM; in that of `O=C(O)Cc1c(C(=O)c2cccc(-c3cc(Cl)cc(Cl)c3)c2)oc2ccccc12` [Example 244], less than 10 µM; in that of `CC(C)c1cccc(-c2cccc(C(=O)c3oc4ccccc4c3CC(=O)O)c2)c1` [Example 245], less than 10 µM. Then `O=C(O)Cc1c(C(=O)c2ccc(-c3ccncc3)cc2)[nH]c2ccccc12` [Example 247], with 10 to 50 µM; and `O=C(O)Cc1c(C(=O)c2ccc(Br)cc2)n(Cc2ccccc2)c2ccccc12` [Example 248], with 10 to 50 µM; and `O=C(O)Cc1c(C(=O)Cc2ccc(-c3ccccc3)cc2)[nH]c2ccccc12` [Example 249], with 10 to 50 µM. Then `Cn1c(C(=O)Cc2ccc(-c3ccccc3)cc2)c(CC(=O)O)c2ccccc21` [Example 250], with 10 to 50 µM; and `O=C(O)Cc1c(C(=O)C(Cc2ccccc2)c2ccc(-c3ccccc3)cc2)[nH]c2ccccc12` (centres unmarked) [Example 251], with less than 10 µM. Regarding `O=C(O)Cc1c(C(=O)c2ccc(-c3ccc(Cl)cc3)cc2)[nH]c2ccccc12` [Example 252], the IC50 is 10 to 50 µM. Then `O=C(O)Cc1c(C(=O)c2ccc(-c3cccc(Cl)c3)cc2)[nH]c2ccccc12` [Example 253], with 10 to 50 µM; and `O=C(O)Cc1c(C(=O)c2ccc(-c3ccccc3Cl)cc2)[nH]c2ccccc12` [Example 254], with less than 10 µM. Regarding `O=C(O)Cc1c(C(=O)c2ccc(-c3ccccc3Cl)cc2)[nH]c2ccccc12` [Example 255], the IC50 was in the range of 10 to 50 µM. As for `Cc1ccc(-c2ccc(C(=O)c3[nH]c4ccccc4c3CC(=O)O)cc2)cc1` [Example 256], the IC50 was 10 to 50 µM. In the case of `O=C(O)Cc1c(C(=O)c2ccc(-c3ccc(Cl)c(Cl)c3)cc2)[nH]c2ccccc12` [Example 257] it was less than 10 µM. Take `O=C(O)Cc1c(C(=O)Cc2ccccc2)n(Cc2ccccc2)c2ccccc12` [Example 258]: the IC50 lay in the range of 10 to 50 µM. `O=C(O)Cc1c(C(=O)Cc2ccc(F)cc2)n(Cc2ccccc2)c2ccccc12` [Example 259]: the IC50 is 10 to 50 µM.

As for `O=C(O)Cc1c(C(=O)Cc2ccccc2Br)n(Cc2ccccc2)c2ccccc12` [Example 260], the IC50 was less than 10 µM. Then `Cc1cc(-c2ccc(C(=O)c3[nH]c4ccccc4c3CC(=O)O)cc2)ccc1Cl` [Example 261], with less than 10 µM; and `Cc1ccc(-c2ccc(C(=O)c3[nH]c4ccccc4c3CC(=O)O)cc2)cc1C` [Example 262], with 10 to 50 µM. Then `NC(=O)c1cccc(-c2ccc(C(=O)c3[nH]c4ccccc4c3CC(=O)O)cc2)c1` [Example 263], with 10 to 50 µM. As to `O=C(O)Cc1c(C(=O)c2ccc(-c3cccc(CO)c3)cc2)[nH]c2ccccc12` [Example 264], the IC50 was 10 to 50 µM. With `NC(=O)c1ccc(-c2ccc(C(=O)c3[nH]c4ccccc4c3CC(=O)O)cc2)cc1` [Example 265], the IC50 fell in the range of 10 to 50 µM.

As for `O=C(O)Cc1c(C(=O)c2ccc(-c3ccc(C(=O)O)cc3)cc2)[nH]c2ccccc12` [Example 266], the IC50 lay within 10 to 50 µM. Then `Cc1ccc(-c2ccc(C(=O)c3[nH]c4ccccc4c3CC(=O)O)cc2)cc1Cl` [Example 267], with less than 10 µM. Then `CC(C)(C)OC(=O)NCc1cccc(-c2ccc(C(=O)c3[nH]c4ccccc4c3CC(=O)O)cc2)c1` [Example 268], with less than 10 µM. As to `O=C(O)Cc1c(C(=O)c2ccc(-c3ccccc3C(F)(F)F)cc2)[nH]c2ccccc12` [Example 269], the IC50 fell in the range of 10 to 50 µM. Then `O=C(O)Cc1c(C(=O)c2ccc(-c3ccccc3Br)cc2)[nH]c2ccccc12` [Example 270], with 10 to 50 µM; and `CSc1ccccc1-c1ccc(C(=O)c2[nH]c3ccccc3c2CC(=O)O)cc1` [Example 271], with 10 to 50 µM.

Take `O=C(O)Cc1c(C(=O)c2ccc(-c3ccc(Cl)cc3Cl)cc2)[nH]c2ccccc12` [Example 272]: the IC50 is less than 10 µM.

Turning to `O=C(O)Cc1c(C(=O)c2ccc(-c3c(Cl)cccc3Cl)cc2)[nH]c2ccccc12` [Example 273], the IC50 lay within 10 to 50 µM.

Take `O=C(O)Cc1c(C(=O)c2ccc(-c3cccc(Cl)c3Cl)cc2)[nH]c2ccccc12` [Example 274]: the IC50 is less than 10 µM.

With `O=C(O)Cc1c(C(=O)c2ccc(-c3ccccc3Cl)cc2)[nH]c2ccc(Br)cc12` [Example 275], the IC50 was less than 10 µM. Then `Cn1c(Cc2ccc(-c3ccccc3)cc2)c(CC(=O)O)c2ccccc21` [Example 276], with 10 to 50 µM; and `O=C(O)Cc1c(Cc2ccc(-c3ccccc3)cc2)n(Cc2ccccc2)c2ccccc12` [Example 277], with 10 to 50 µM. Then `O=C(O)Cc1c(Cc2ccc(-c3ccccc3)cc2)n(CC2CC2)c2ccccc12` [Example 278], with less than 10 µM. Then `O=C(O)Cc1c(Cc2ccc(-c3ccccc3Cl)cc2)[nH]c2ccccc12` [Example 279], with less than 10 µM.

In the case of `O=C(O)Cc1c(Cc2ccc(-c3ccc(Cl)c(Cl)c3)cc2)[nH]c2ccccc12` [Example 280], the IC50 was less than 10 µM. Then `Cc1cc(-c2ccc(Cc3[nH]c4ccccc4c3CC(=O)O)cc2)ccc1Cl` [Example 281], with less than 10 µM; and `Cc1ccc(-c2ccc(Cc3[nH]c4ccccc4c3CC(=O)O)cc2)cc1C` [Example 282], with less than 10 µM. In the case of `Cc1ccccc1-c1ccc(Cc2[nH]c3ccccc3c2CC(=O)O)cc1` [Example 283] it was 10 to 50 µM; in that of `COc1ccccc1-c1ccc(Cc2[nH]c3ccccc3c2CC(=O)O)cc1` [Example 284], 10 to 50 µM.

For the molecule `O=C(O)Cc1c(Cc2ccc(-c3ccccc3C(F)(F)F)cc2)[nH]c2ccccc12` [Example 285], the IC50 is less than 10 µM. Then `O=C(O)Cc1c(Cc2ccc(-c3ccccc3F)cc2)[nH]c2ccccc12` [Example 286], with 10 to 50 µM; and `O=C(O)Cc1c(Cc2ccc(-c3ccccc3Br)cc2)[nH]c2ccccc12` [Example 287], with less than 10 µM.

Values taken from patent US20090047246A1, “NOVEL INHIBITORS OF HEPATITIS C VIRUS REPLICATION” (InterMune, Inc., priority 2007, published 2009).
